“Also recorded” adds a separate entry of the source. Like-named read-outs stand apart in the source and are kept apart here.
How the values were obtained:
[1] = Assessment of In Vivo Pharmacokinetics in Beagle dog; conditions: for Dog BAV: male Beagle dog, iv or po at 1 mg/kg or 3 mg/kg; for bioavailability in vivo / plasma clearance in vivo: dog, comparison in words
Description: Assessment of In Vivo Pharmacokinetics
A total of 6 Male Non-naïve Beagle dog, weighing approximately 8.00-10.00 kg (Beijing Marshall Biotechnology Co. LTD), were dosed by intravenous injection (iv) or oral gavage (po) at 1 mg/kg or 3 mg/kg. The vehicles of IV and PO are 100% saline and 100% (0.5% MC in water), respectively. The IV dose was conducted via cephalic vein injection, PO via gavage administration. The animals were restrained manually, and approximately 0.5 mL blood/time point was collected from cephalic vein into pre-cooled K2EDTA tubes. Blood sample was put on wet ice and centrifuged at 4° C. (2000 g, 5 min) to obtain plasma within 15 minutes of sample collection. Plasma samples were analyzed by UPLC/MS-MS. PK parameters were estimated by non-compartmental model using WinNonlin6.4.

[2] = biological target: N-terminally GST-tagged HCK (75-526) (Homo sapiens (Human), UniProt P08631); test: HCK Kinase Assay (ProFluor Src-Family Kinase Assay); type: biochemical
Chain of N-terminally GST-tagged HCK (75-526) (P08631 75-526): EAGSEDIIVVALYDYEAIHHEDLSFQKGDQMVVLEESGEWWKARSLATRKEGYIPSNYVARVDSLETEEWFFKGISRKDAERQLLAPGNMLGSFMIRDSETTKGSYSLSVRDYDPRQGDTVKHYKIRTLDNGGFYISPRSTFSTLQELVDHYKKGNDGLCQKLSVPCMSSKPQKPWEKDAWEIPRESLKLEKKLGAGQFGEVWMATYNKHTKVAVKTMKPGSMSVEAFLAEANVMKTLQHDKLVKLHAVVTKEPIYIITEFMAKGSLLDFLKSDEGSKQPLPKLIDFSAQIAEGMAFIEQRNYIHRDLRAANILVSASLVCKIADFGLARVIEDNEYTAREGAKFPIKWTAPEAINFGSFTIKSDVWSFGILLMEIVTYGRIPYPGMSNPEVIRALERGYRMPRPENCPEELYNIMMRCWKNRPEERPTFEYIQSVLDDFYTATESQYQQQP
In short: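 ProFluor Src-family format: after the kinase reaction, protease solution was added for 60 min at room temperature (22-25° C), then stabilizer.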

[3] = Assessment of In Vitro Metabolic Stability in dog liver microsomes; type: in vitro ADME; conditions: for half-life at 1 μM: dog liver microsomes 0.5 mg/mL, 1 μM compound, NADPH, 37° C., read-out: Dog LM t1/2; for t1/2 in dog LM compared with the compound of example 1: comparison in words
Description: Assessment of In Vitro Metabolic Stability
Dog liver microsomes (0.5 mg/mL) were purchased from Corning. Stock solutions were prepared at 10 mM in DMSO for the test compound. Aliquots of the stock solutions were diluted to 0.5 mM with acetonitrile, and then further diluted upon the addition of liver microsomes/buffer to 1.5 μM. An aliquot of 30 μL of 1.5 μM solutions was mixed with 15 μL of 6 mM NADPH and the final concentration of NADPH was 2 mM, which had been pre-warmed to 37° C. Test compound and Ketanserin final concentrations were 1 μM. The plates were kept in a 37° C. water bath for the duration of the experiment. At each time point (0, 5, 15, 30, 45 minutes), 135 μL of acetonitrile was added into corresponding wells. After the final time point was quenched by acetonitrile, the assay plates were shaken (IKA, MTS 2/4) for 10 min (600 rpm/min) and then centrifuged at 5,594 g for 15 min (Thermo Multifuge×3R). Aliquots of the supernatant were taken, diluted 1:1 into distilled water, and analyzed by LC-MS/MS. The peak area response ratio to internal standard (PARR) of the compounds at 5, 15, 30, 45 minutes was compared to the PARR at time 0 to determine the percent of test compound remaining at each time point. Half-lives were calculated using Excel software, fitting to a single-phase exponential decay equation.

[4] = HCK inhibitory activity, 50 μM ATP, read-out: HCK Activity

Row | SMILES | Dog BAV [1] [% F] | IC50 ([2]; 50 μM ATP, read-out: HCK IC50) [µM] | half-life at 1 μM [3] [h] | IC50 [2, 4] [µM] | t1/2 in dog LM compared with the compound of example 1 [3] | bioavailability in vivo [1] | plasma clearance in vivo [1] | IC50 [2] [µM] | HCK potency relative to a comparator compound ([2]; example 127 versus example 21 and versus example 17)
1 | CN1CCN([C@H]2CC[C@H](n3cc(-c4ccc(Oc5ccccc5)cc4)c4c(N)ncnc43)CC2)CC1 [Example 1, 7-((trans)-4-(4-methylpiperazin-1-yl)cyclohexyl)-5-(4-phenoxyphenyl)-7H-pyrrolo[2,3-d]pyrimidin-4-amine] | 0 | 0.0033 | 0.183 | – | – | – | – | < 0.05 | –
2 | C[C@H]1CN([C@H]2CC[C@H](n3cc(-c4ccc(Oc5ccccc5)cc4)c4c(N)ncnc43)CC2)CCN1 [Example 19, 7-((trans)-4-((S)-3-methylpiperazin-1-yl)cyclohexyl)-5-(4-phenoxyphenyl)-7H-pyrrolo[2,3-d]pyrimidin-4-amine] | – | 0.017 | 1.4 | < 0.05 | higher t1/2 | – | – | – | –
3 | C[C@H]1CN([C@H]2CC[C@H](c3nc(-c4ccc(Oc5ccccc5)cc4F)c4c(N)ncnn43)CC2)CCN1 [Example 165, 5-(2-fluoro-4-phenoxyphenyl)-7-((trans)-4-((S)-3-methylpiperazin-1-yl)cyclohexyl)imidazo[5,1-f][1,2,4]triazin-4-amine] | – | 0.005 | 2.78 | < 0.05 | higher t1/2 | – | – | – | –

Continued, in another order:

Row | Dog BAV [1] [% F] | IC50 ([2]; 50 μM ATP, read-out: HCK IC50) [µM] | half-life at 1 μM [3] [h] | IC50 [2, 4] [µM] | t1/2 in dog LM compared with the compound of example 1 [3] | bioavailability in vivo [1] | plasma clearance in vivo [1] | SMILES | IC50 [2] [µM] | HCK potency relative to a comparator compound ([2]; example 127 versus example 21 and versus example 17)
4 | – | 0.043 | 2.13 | < 0.05 | higher t1/2 | – | – | C[C@H]1CN([C@H]2CC[C@H](n3nc(-c4ccc(Oc5ccccc5)cc4)c4c(N)ncnc43)CC2)CCN1 [Example 21, 1-((trans)-4-((S)-3-methylpiperazin-1-yl)cyclohexyl)-3-(4-phenoxyphenyl)-1H-pyrazolo[3,4-d] pyrimidin-4-amine] | – | –
5 | 24 | 0.0041 | 0.967 | < 0.05 | higher t1/2 | higher bioavailability | lower plasma clearance | CN1CCN([C@H]2CC[C@H](n3nc(-c4ccc(Oc5ccccc5)cc4F)c4c(N)ncnc43)CC2)CC1 [Example 103, 3-(2-Fluoro-4-phenoxyphenyl)-1-((trans)-4-(4-methylpiperazin-1-yl)cyclohexyl)-1H-pyrazolo [3,4-d] pyrimidin-4-amine] | – | –
6 | 57 | 0.0051 | 1.97 | < 0.05 | higher t1/2 | higher bioavailability | lower plasma clearance | C[C@H]1CN([C@H]2CC[C@H](n3nc(-c4ccc(Oc5ccccc5)cc4F)c4c(N)ncnc43)CC2)CCN1 [Example 127, 3-(2-fluoro-4-phenoxyphenyl)-1-((trans)-4-((S)-3-methylpiperazin-1-yl)cyclohexyl)-1H-pyrazolo[3,4-d]pyrimidin-4-amine] | – | nearly an order of magnitude higher potency; also recorded: nearly three times greater potency
7 | 51 | 0.0011 | 1.8 | < 0.05 | higher t1/2 | higher bioavailability | lower plasma clearance | CN1CCN([C@H]2CC[C@H](c3nc(-c4ccc(Oc5ccccc5)cc4F)c4c(N)ncnn43)CC2)CC1 [Example 163, 5-(2-fluoro-4-phenoxyphenyl)-7-((trans)-4-(4-methylpiperazin-1-yl)cyclohexyl)imidazo[5,1-f][1,2,4]triazin-4-amine] | – | –

From US11963960B2 (Flash Therapeutics, LLC, priority 2020, dated 2024)
